Assay results taken from patent publication US11357779B2 (G1 Therapeutics, Inc., priority 2018, dated 2022).
Where two headings read alike, the source gives them in different places.

Assay: Noncompartmental pharmacokinetic parameters (Cmax, Tmax, AUC, Racc) in QD and BID cohorts of Form B
Format: in vivo, human
Conditions: human, plasma, oral
Procedure: Analysis of plasma concentration versus time data for calculation of standard pharmacokinetic (PK) parameters following oral administration was conducted using Phoenix WinNonlin version 6.3 using actual blood sampling times.
The following pharmacokinetic parameters were calculated from the concentration versus time data obtained in Example 1 for each of the above QD (200 mg, 300 mg, 400 mg, 500 mg, or 650 mg dosed) and BID (100 mg, 150 mg, or 200 mg doses) Form B of Compound II dosage cohorts: • Cmax—the observed peak plasma concentration determined from the plasma concentration versus time data obtained on Day 1 and Day 29, as applicable; • Tmax—the time to reach the observed peak plasma concentration from the plasma concentration versus time data obtained on Day 1 and Day 29, as applicable; • AUC—area under the plasma concentration versus time curve during a dosing interval on Day 1 and Day 29, as applicable; and • Racc—accumulation ratio calculated as AUCDay 29/AUCDay 1.

## CC(C)N1CCN(c2ccc(Nc3ncc4cc5n(c4n3)C3(CCCCC3)CNC5=O)nc2)CC1 [Compound I, 2′-((5-(4-isopropylpiperazin-1-yl)pyridin-2-yl)amino)-7′,8′-dihydro-6′H-spiro[cyclohexane-1,9′-pyrazino[1′,2′:1,5]pyrrolo[2,3-d]pyrimidin]-6′-one]
300 mg, Cohort 2, 300 mg QD of Form B, Day 1, upon exclusion of data for patient that vomited immediately after dosing, read-out: Cmax, Mean
  Cmax: 55.2 ng/mL
300 mg, Cohort 2, 300 mg QD of Form B, Day 1, read-out: AUClast, Mean
  AUC(0-t): 413 ng·h/mL
300 mg, Cohort 2, 300 mg QD of Form B, Day 1, read-out: AUClast, Median
  AUC(0-t): 554 ng·h/mL
300 mg, Cohort 2, 300 mg QD of Form B, Day 1, read-out: Cmax, Mean
  Cmax: 40.2 ng/mL
300 mg, Cohort 2, 300 mg QD of Form B, Day 1, read-out: Cmax, Median
  Cmax: 44.3 ng/mL
300 mg, Cohort 2, 300 mg QD of Form B, Day 1, read-out: Tmax, Mean
  Tmax: 4.67 h
300 mg, Cohort 2, 300 mg QD of Form B, Day 1, read-out: Tmax, Median
  Tmax: 4 h
300 mg, Compound I, 300 mg QD of Form B, Cohort 2, Day 29, read-out: AUClast (Mean)
  AUC(0-t): 592 ng·h/mL
300 mg, Compound I, 300 mg QD of Form B, Cohort 2, Day 29, read-out: AUClast (Median)
  AUC(0-t): 604 ng·h/mL
300 mg, Compound I, 300 mg QD of Form B, Cohort 2, Day 29, read-out: Cmax (Mean)
  Cmax: 47 ng/mL
300 mg, Compound I, 300 mg QD of Form B, Cohort 2, Day 29, read-out: Cmax (Median)
  Cmax: 40.5 ng/mL
300 mg, Compound I, 300 mg QD of Form B, Cohort 2, Day 29, read-out: Tmax (Mean)
  Tmax: 6 h
300 mg, Compound I, 300 mg QD of Form B, Cohort 2, Day 29, read-out: Tmax (Median)
  Tmax: 4 h
400 mg, Cohort 3, 400 mg QD of Form B, Day 1, read-out: AUClast, Mean
  AUC(0-t): 202 ng·h/mL
400 mg, Cohort 3, 400 mg QD of Form B, Day 1, read-out: AUClast, Median
  AUC(0-t): 183 ng·h/mL
400 mg, Cohort 3, 400 mg QD of Form B, Day 1, read-out: Cmax, Mean
  Cmax: 20.1 ng/mL
400 mg, Cohort 3, 400 mg QD of Form B, Day 1, read-out: Cmax, Median
  Cmax: 21.6 ng/mL
400 mg, Cohort 3, 400 mg QD of Form B, Day 1, read-out: Tmax, Mean
  Tmax: 6 h
400 mg, Cohort 3, 400 mg QD of Form B, Day 1, read-out: Tmax, Median
  Tmax: 6 h
400 mg, Compound I, 400 mg QD of Form B, Cohort 3, Day 29, read-out: AUClast (Mean)
  AUC(0-t): 278 ng·h/mL
400 mg, Compound I, 400 mg QD of Form B, Cohort 3, Day 29, read-out: AUClast (Median)
  AUC(0-t): 348 ng·h/mL
400 mg, Compound I, 400 mg QD of Form B, Cohort 3, Day 29, read-out: Cmax (Mean)
  Cmax: 19 ng/mL
400 mg, Compound I, 400 mg QD of Form B, Cohort 3, Day 29, read-out: Cmax (Median)
  Cmax: 23.5 ng/mL
400 mg, Compound I, 400 mg QD of Form B, Cohort 3, Day 29, read-out: Tmax (Mean)
  Tmax: 5.33 h
400 mg, Compound I, 400 mg QD of Form B, Cohort 3, Day 29, read-out: Tmax (Median)
  Tmax: 6 h
500 mg, Cohort 4, 500 mg QD of Form B, Day 1, read-out: AUClast, Mean
  AUC(0-t): 577 ng·h/mL
500 mg, Cohort 4, 500 mg QD of Form B, Day 1, read-out: AUClast, Median
  AUC(0-t): 611 ng·h/mL
500 mg, Cohort 4, 500 mg QD of Form B, Day 1, read-out: Cmax, Mean
  Cmax: 48.9 ng/mL
500 mg, Cohort 4, 500 mg QD of Form B, Day 1, read-out: Cmax, Median
  Cmax: 49.6 ng/mL
500 mg, Cohort 4, 500 mg QD of Form B, Day 1, read-out: Tmax, Mean
  Tmax: 5.75 h
500 mg, Cohort 4, 500 mg QD of Form B, Day 1, read-out: Tmax, Median
  Tmax: 6 h
500 mg, Compound I, 500 mg QD of Form B, Cohort 4, Day 29, read-out: AUClast (Mean)
  AUC(0-t): 607 ng·h/mL
500 mg, Compound I, 500 mg QD of Form B, Cohort 4, Day 29, read-out: AUClast (Median)
  AUC(0-t): 591 ng·h/mL
500 mg, Compound I, 500 mg QD of Form B, Cohort 4, Day 29, read-out: Cmax (Mean)
  Cmax: 43.2 ng/mL
500 mg, Compound I, 500 mg QD of Form B, Cohort 4, Day 29, read-out: Cmax (Median)
  Cmax: 45 ng/mL
500 mg, Compound I, 500 mg QD of Form B, Cohort 4, Day 29, read-out: Tmax (Mean)
  Tmax: 5.33 h
500 mg, Compound I, 500 mg QD of Form B, Cohort 4, Day 29, read-out: Tmax (Median)
  Tmax: 6 h
650 mg, Cohort 5, 650 mg QD of Form B, Day 1, read-out: AUClast, Mean
  AUC(0-t): 799 ng·h/mL
650 mg, Cohort 5, 650 mg QD of Form B, Day 1, read-out: AUClast, Median
  AUC(0-t): 805 ng·h/mL
650 mg, Cohort 5, 650 mg QD of Form B, Day 1, read-out: Cmax, Mean
  Cmax: 62.5 ng/mL
650 mg, Cohort 5, 650 mg QD of Form B, Day 1, read-out: Cmax, Median
  Cmax: 67 ng/mL
650 mg, Cohort 5, 650 mg QD of Form B, Day 1, read-out: Tmax, Mean
  Tmax: 7.67 h
650 mg, Cohort 5, 650 mg QD of Form B, Day 1, read-out: Tmax, Median
  Tmax: 8 h
650 mg, Compound I, 650 mg QD of Form B, Cohort 5, Day 29, read-out: AUClast (Mean)
  AUC(0-t): 607 ng·h/mL
650 mg, Compound I, 650 mg QD of Form B, Cohort 5, Day 29, read-out: AUClast (Median)
  AUC(0-t): 591 ng·h/mL
650 mg, Compound I, 650 mg QD of Form B, Cohort 5, Day 29, read-out: Cmax (Mean)
  Cmax: 43.2 ng/mL
650 mg, Compound I, 650 mg QD of Form B, Cohort 5, Day 29, read-out: Cmax (Median)
  Cmax: 45 ng/mL
650 mg, Compound I, 650 mg QD of Form B, Cohort 5, Day 29, read-out: Tmax (Mean)
  Tmax: 5.33 h
650 mg, Compound I, 650 mg QD of Form B, Cohort 5, Day 29, read-out: Tmax (Median)
  Tmax: 6 h
